Test results: PMC8207694, “Nucleoside transporter-guided cytarabine-conjugated liposomes for intracellular methotrexate delivery and cooperative choriocarcinoma therapy” (Journal of Nanobiotechnology, 2021)

Legend:
[1] = test system: JEG-3 cells; test: Specific uptake of cytarabine into the cells (LC/MS); assay type: cell-based, human; conditions: Cy 5 μM, after 30 min and 1 h; compared with Pricell-0051, MCF-7, HepG2 cells; P < 0.05
Procedure: JEG-3 cells, MCF-7 cells, or HepG2 cells were plated overnight in 6-well plates. Then, the adhered cells were treated with Cy (5 μM) for 30 min or 60 min. Then, cells were washed with PBS for moving the free drug in the medium. After that, the cells were lysed and treated with acetonitrile for precipitating protein. Finally, the content of Cy was detected by LC/MS (8050, SHIMADZU, Japan).

[2] = test system: JEG-3 cells; test: Effect of endocytosis inhibitors on liposome uptake; assay type: cell-based, human; conditions: pre-treatment 30 min; chlorpromazine 50 μM, indomethacin 50 μM, colchicine 10 μM, quercetin 10 μM
Procedure: Endocytosis was studied by adding JEG-3 cells to 6 well-plates and pre-treating them for 30 min with inhibitors of various endocytic pathways including the clathrin-dependent endocytosis inhibitor chlorpromazine (50 μM), the caveolin-dependent endocytosis inhibitor indomethacin (50 μM), the micropinocytosis inhibitor colchicine (10 μM), and quercetin (10 μM) as tools for inhibiting caveolae- or clathrin-independent endocytosis. Then, the medium was removed, and the fresh medium containing Dox-labeled liposomes was added to the plate. The cells were incubated for another 4 h. Subsequent steps were the same as those in uptake assay.

[3] = molecular target: T1, ENT1 (Homo sapiens, UniProt Q99808); test: Effect of ENT1 competitive inhibitors on MTX formulation cytotoxicity (MTT); conditions: then 20 μg MTX-equivalent/mL for 48 h; for effect of pre-treatment on toxicity of Cy-Lipo@MTX to JEG-3 cells: inhibitor 0.2-5.0 μM for 2 h
T1 sequence (Q99808 1-456): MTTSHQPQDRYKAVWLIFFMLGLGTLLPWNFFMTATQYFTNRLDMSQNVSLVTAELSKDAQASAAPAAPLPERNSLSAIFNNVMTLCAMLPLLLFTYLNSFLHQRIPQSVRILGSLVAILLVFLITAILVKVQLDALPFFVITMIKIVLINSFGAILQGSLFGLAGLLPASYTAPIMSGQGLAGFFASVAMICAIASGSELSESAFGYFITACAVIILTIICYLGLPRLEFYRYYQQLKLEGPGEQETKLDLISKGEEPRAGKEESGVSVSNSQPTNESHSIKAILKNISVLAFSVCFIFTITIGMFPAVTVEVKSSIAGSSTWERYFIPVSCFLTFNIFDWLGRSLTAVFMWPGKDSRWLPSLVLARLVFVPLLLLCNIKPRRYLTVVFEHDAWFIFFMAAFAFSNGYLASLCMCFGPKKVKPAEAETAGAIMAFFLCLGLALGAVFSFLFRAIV
Procedure: To investigate the effect of ENT1 on MTX formulations induced cytotoxicity, 2′-deoxycytidine and gemcitabine, as competitive inhibitors of ENT1, were cultured with adherent JEG-3 cells for 2 h. Next, the medium was removed, and the fresh medium containing MTX formulations (20 μg MTX-equivalent/mL) was added to the plate. The cells were incubated for another 48 h. MTT reagent was added as previously described, and absorbance was assessed via microplate reader.

[4] = molecular target: T1, ENT1; test: Competitive inhibition of liposome uptake by ENT1 substrates; assay type: cell-based; parameters: endogenous in cells; host or cells: JEG-3 (human choriocarcinoma cells); conditions: pre-treatment 2 h, 0.2-5.0 μM, then liposomes 4 h
Procedure: Briefly, different concentration (0.2–5.0 μM) of 2′-deoxycytidine or gemcitabine was cultured with the adherent JEG-3 cells for 2 h. Then, the medium was removed, and the fresh medium containing Dox-labeled liposomes was added to the plate. The cells were incubated for another 4 h. Subsequent steps were the same as those in uptake assay.

Compound: Nc1ccn([C@@H]2O[C@H](CO)[C@@H](O)[C@@H]2O)c(=O)n1 [Cy, cytosine β-d-arabinofuranoside]
- amount of Cy taken up by JEG-3 cells [1]: significantly higher than that taken up by Pricell-0051, MCF-7, and HepG2 cells

Compound: O=c1c(O)c(-c2ccc(O)c(O)c2)oc2cc(O)cc(O)c12 [Quercetin, quercetin]
- effect of endocytosis inhibitor on uptake of Dox-labeled Cy-Lipo [2]: a certain inhibitory effect

Compound: CN(C)CCCN1c2ccccc2Sc2ccc(Cl)cc21 [chlorpromazine]
- effect of endocytosis inhibitor on uptake of Dox-labeled Cy-Lipo [2]: next most substantial inhibition

Compound: COc1cc2c(c(OC)c1OC)-c1ccc(OC)c(=O)cc1[C@@H](NC(C)=O)CC2 [colchicine]
- effect of endocytosis inhibitor on uptake of Dox-labeled Cy-Lipo [2]: reduced effect

Compound: Cl.Nc1ccn([C@H]2C[C@H](O)[C@@H](CO)O2)c(=O)n1 [deoxycytidine, 2′-deoxycytidine hydrochloride]
- effect of pre-treatment on toxicity of Cy-Lipo@MTX to JEG-3 cells [3]: significantly reduced the toxicity of Cy-Lipo@MTX to JEG-3 cells
- effect on uptake of Dox-labeled Cy-Lipo by JEG-3 cells [4]: significantly reduce the uptake of Dox-labeled Cy-Lipo by JEG-3 cells in a concentration-dependent manner
- effect on uptake of Dox-labeled Lipo by JEG-3 cells [4]: less of effect

Compound: Nc1ccn([C@@H]2O[C@H](CO)[C@@H](O)C2(F)F)c(=O)n1 [gemcitabine]
- effect of pre-treatment on toxicity of Cy-Lipo@MTX to JEG-3 cells [3]: significantly reduced the toxicity of Cy-Lipo@MTX to JEG-3 cells
- effect of pre-treatment on cytotoxicity of free MTX or Lipo@MTX in JEG-3 cells ([3]; inhibitor for 2 h): little effect
- effect on uptake of Dox-labeled Cy-Lipo by JEG-3 cells [4]: significantly influenced the uptake of Dox-labeled Cy-Lipo at concentrations of 1.0 μM and 5.0 μM

Compound: COc1ccc2c(c1)c(CC(=O)O)c(C)n2C(=O)c1ccc(Cl)cc1 [indomethacin]
- effect of endocytosis inhibitor on uptake of Dox-labeled Cy-Lipo [2]: impacted the uptake of Dox-labeled Cy-Lipo to the greatest extent
